Experimental data from article PMC6333907, “Oligopeptide Signaling through TbGPR89 Drives Trypanosome Quorum Sensing” (Cell, 2019).

Target: T1, YjdL (Escherichia coli, UniProt P39276)
T1 construct: gene dtpC; pET28a-YjdL, His-tag vector, overexpressed in whole E. coli BL21-CodonPlus (DE3)-RIPL cells
T1 sequence (P39276 1-485): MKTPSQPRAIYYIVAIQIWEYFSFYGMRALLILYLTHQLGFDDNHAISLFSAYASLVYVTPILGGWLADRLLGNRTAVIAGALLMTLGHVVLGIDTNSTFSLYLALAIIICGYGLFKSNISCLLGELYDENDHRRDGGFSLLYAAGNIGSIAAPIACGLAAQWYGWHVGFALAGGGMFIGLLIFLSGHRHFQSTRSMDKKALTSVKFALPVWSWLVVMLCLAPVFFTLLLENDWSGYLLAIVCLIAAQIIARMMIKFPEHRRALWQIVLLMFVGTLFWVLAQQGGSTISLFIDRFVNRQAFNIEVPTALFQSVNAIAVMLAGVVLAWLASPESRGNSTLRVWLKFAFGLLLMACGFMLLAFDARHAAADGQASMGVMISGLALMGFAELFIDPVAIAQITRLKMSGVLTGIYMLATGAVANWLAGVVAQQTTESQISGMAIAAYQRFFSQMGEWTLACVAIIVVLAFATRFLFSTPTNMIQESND
Assay: fluorescent dipeptide uptake in E. coli expressing the protein
Type: cell-based
Details: pH 6.5, 37 °C, 15-20 min; printed final 500 μM (1.5 μl of 20 mM in 100 μl); labelled compound

## Cc1c(CC(=O)NCCCC[C@H](NC(=O)CCN)C(=O)O)c(=O)oc2cc(N)ccc12 [β-Ala-Lys-AMCA]
  fluorescent dipeptide uptake in E. coli expressing the protein: Relative uptake of fluorescent dipeptide β-ALA-Lys-AMCA in E. coli induced (+IPTG)
